IC50 and Ki data for 6 compounds are collected here from patent US9326985B2, “Heteroaryl pyridone and aza-pyridone amide compounds” (Genentech, Inc., priority 2013, dated 2016).

The test system of assay [1] is CD69 by B lymphocytes in human whole blood activated with goat F(ab')2 anti-human IgM. Description: CD69 Whole Blood Assay (CD69 Hu Blood FACS). The class given is cell-based. To be noted: Lymphocyte, Table 2, anti-IgM stimulation, CD69 positive of CD20 positive cells. The gist of the method: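 Heparinized human whole blood from healthy drug-free non-smokers preincubated 30 min at 37 °C with ten-point 3-fold compound dilutions, then stimulated with goat F(ab′)2 anti-human IgM (50 μg/ml final) for 20 h. CD69 on B cells read by flow cytometry as mean fluorescence intensity.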

Assay [2] addresses T1, full length human wildtype Btk (Homo sapiens, UniProt Q06187).
T1 construct: V5 (C); 6xHis (C); made in house; host or cells: Sf9 insect cells (baculovirus, pFastBac)
Description: Biochemical Btk Assay (BTK LC3K). Conditions: Table 2.

What is called IC50 is the concentration needed to halve the response being measured. Low values mean greater potency, high ones weaker potency. For orientation: Ki means the equilibrium dissociation constant of an inhibitor or competing ligand from its target.

T1 sequence (Q06187 whole entry): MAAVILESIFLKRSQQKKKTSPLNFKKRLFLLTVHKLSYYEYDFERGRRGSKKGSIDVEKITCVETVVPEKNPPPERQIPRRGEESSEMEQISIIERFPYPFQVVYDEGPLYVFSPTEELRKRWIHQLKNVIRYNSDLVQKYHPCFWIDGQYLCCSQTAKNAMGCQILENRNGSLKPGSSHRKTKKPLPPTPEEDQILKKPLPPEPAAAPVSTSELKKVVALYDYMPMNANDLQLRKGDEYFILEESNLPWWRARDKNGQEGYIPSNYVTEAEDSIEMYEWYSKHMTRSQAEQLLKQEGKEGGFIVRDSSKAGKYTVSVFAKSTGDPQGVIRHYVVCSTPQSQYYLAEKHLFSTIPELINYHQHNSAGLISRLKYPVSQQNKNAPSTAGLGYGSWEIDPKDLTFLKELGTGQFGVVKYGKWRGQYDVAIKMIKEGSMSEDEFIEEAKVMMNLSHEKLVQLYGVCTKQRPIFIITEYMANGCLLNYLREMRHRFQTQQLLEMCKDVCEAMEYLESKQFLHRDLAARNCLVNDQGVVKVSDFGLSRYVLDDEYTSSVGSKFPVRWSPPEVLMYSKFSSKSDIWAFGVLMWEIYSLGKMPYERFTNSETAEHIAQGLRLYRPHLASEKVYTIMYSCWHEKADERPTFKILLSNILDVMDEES

Consider `Cn1cc(-c2ccnc(-c3nc4ccc(C(C)(C)C)cc4n3C)c2CO)cc(NC(=O)C2CC2)c1=O` [Compound 160, N-[5-[2-(6-tert-butyl-1-methyl-benzimidazol-2-yl)-3-(hydroxymethyl)-4-pyridyl]-1-methyl-2-oxo-3-pyridyl]cyclopropanecarboxamide], for which the IC50 in assay [1] is over 3.5 µM. The compound further had a Ki in assay [2] of 0.0257 µM.
In the same order, the values of `Cn1cc(-c2ccnc(-c3nc4cc(C(C)(C)C)ccc4n3C)c2CO)cc(NC(=O)C2CC2)c1=O` [Compound 164, N-[5-[2-(5-tert-butyl-1-methyl-benzimidazol-2-yl)-3-(hydroxymethyl)-4-pyridyl]-1-methyl-2-oxo-3-pyridyl]cyclopropanecarboxamide] are over 10.6 µM and over 0.5 µM.
In assay [1], `Cn1cc(-c2cc(F)cc(N3CCc4c(cc5n4CCCC5)C3=O)c2CO)cc(NC(=O)[C@@H]2C[C@@H]2F)c1=O` [Compound 167, (1S,2S)-2-fluoro-N-[5-[5-fluoro-2-(hydroxymethyl)-3-(1-oxo-3,4,6,7,8,9-hexahydropyrido[3,4-b]indolizin-2-yl)phenyl]-1-methyl-2-oxo-3-pyridyl]cyclopropanecarboxamide] yielded an IC50 of 0.245 µM. Also, the Ki in assay [2] turned out to be 0.0024 µM.
`Cn1cc(-c2cc(F)cc(N3CCc4c(cc5n4CC(C)(C)C5)C3=O)c2CO)cc(NC(=O)[C@@H]2C[C@@H]2F)c1=O` [Compound 168] showed an IC50 in assay [1] of 0.157 µM. For the same compound, the Ki in assay [2] was determined as 0.001 µM.
On the same counts, the results for `Cn1cc(-c2cc(F)cc(N3CCn4c(cc5c4CC(C)(C)C5)C3=O)c2CO)cc(NC(=O)[C@@H]2C[C@@H]2F)c1=O` [Compound 172, (1S,2S)—N-[5-[3-(7,7-dimethyl-4-oxo-1,2,6,8-tetrahydrocyclopenta[3,4]pyrrole[3,5-b]pyrazin-3-yl)-5-fluoro-2-(hydroxymethyl)phenyl]-1-methyl-2-oxo-3-pyridyl]-2-fluoro-cyclopropanecarboxamide] are 0.017 µM and 0.0008 µM.
Take `Cn1cc(-c2cc(F)cc(N3CCn4c(cc5c4CC(C)(C)C5)C3=O)c2CO)cc(NC(=O)[C@H]2C[C@H]2F)c1=O` [Compound 176, (1R,2R)—N-[5-[3-(7,7-dimethyl-4-oxo-1,2,6,8-tetrahydrocyclopenta[3,4]pyrrole[3,5-b]pyrazin-3-yl)-5-fluoro-2-(hydroxymethyl)phenyl]-1-methyl-2-oxo-3-pyridyl]-2-fluoro-cyclopropanecarboxamide]: inhibition in assay [1] was half-maximal at 0.0327 µM (IC50). Besides, the affinity in assay [2] corresponds to a Ki of 0.0021 µM.
